Patent US20250380696A1, “METHOD FOR CONTROLLING UNDESIRED PLANTS AND PROMOTING GROWTH OF USEFUL PLANTS” (ISHIHARA SANGYO KAISHA, LTD., priority 2022, published 2025)

Legend:
Format in all cases: in vivo
[1] = system: Italian ryegrass (Lolium multiflorum); experiment: (16) Herbicidal effect test (comparative test), pot, spray at 2.5 to 3.0 leaf stage; settings: 4th day after spraying
Text: [formula] • X: growth inhibition rate when treated with α (g/ha) of compound A, • Y: growth inhibition rate when treated with β (g/ha) of compound B, • E: growth inhibition rate expected when treated with α (g/ha) of compound A and β (g/ha) of compound B (expected value).
Upland soil was put in a 1/1,000,000 hectare pot, and seeds of Italian ryegrass (Lolium multiflorum) were sown. When Italian ryegrass reached 2.5 to 3.0 leaf stage, a water-based suspension containing tiafenacil as the active ingredient, prepared by a conventional method for preparing a water-based suspension, a water-based suspension containing saflufenacil as the active ingredient (tradename: Sharpen, manufactured by BASF), a wettable powder containing fomesafen as the active ingredient, prepared by a conventional method for preparing a wettable powder, an emulsifiable concentrate containing fluthiacet-methyl as the active ingredient (tradename: Attackshot emulsifiable concentrate, manufactured by MARUWA Biochemical Co., Ltd.), a dry flowable containing carfentrazone-ethyl as the active ingredient (tradename: Task DF, manufactured by ISHIHARA SANGYO KAISHA, LTD.) or a water-based suspension containing pyraflufen-ethyl as the active ingredient (tradename: ECOPART flowable, manufactured by NIHON NOHYAKU CO., LTD.), and an emulsifiable concentrate containing S-metolachlor as the active ingredient (tradename: Dual Gold, manufactured by Syngenta) or a wettable powder containing metribuzin as the active ingredient (tradename: SENCOR wettable powder, manufactured by Bayer Crop Science), were diluted with water (in an amount corresponding to 200 liter per hectare) containing 0.5 vol % of an agricultural spreader (tradename: Destiny HC, manufactured by Winfield Solutions, LLC.) and sprayed by a small spray gun (model: W-101-132G, manufactured by ANEST IWATA Corporation). On the 4th day after spraying, the state of growth of the Italian ryegrass was visually observed, and the growth inhibition rate (%) was obtained in accordance with the evaluation standards described in the above (1) herbicidal effect test, and the results are shown in Table 16. Further, the expected value of the growth inhibition rate (%) was calculated in accordance with the Colby's formula described in the above (1) herbicidal effect test, and the results are also shown in Table 16.

[2] = system: soybean (cultivar: Enrei); experiment: (23) Plant growth promotion effect test (soybean), Italian ryegrass sown, seed weight; settings: 97th day after the sowing
Text: Upland soil was put in a 1/200,000 hectare pot, and seeds of Italian ryegrass (Lolium multiflorum) were sown. When the Italian ryegrass reached 2.5 to 3.0 leaf stage, a water-based suspension containing tiafenacil as the active ingredient, prepared by a conventional method for preparing a water-based suspension, and an emulsifiable concentrate containing S-metolachlor as the active ingredient (tradename: Dual Gold, manufactured by Syngenta), a wettable powder containing metribuzin as the active ingredient (tradename: SENCOR wettable powder, manufactured by Bayer Crop Science), water dispersible granules containing pyroxasulfone as the active ingredient (tradename: Sakura, manufactured by Bayer Crop Science), a wettable powder containing tri-allate as the active ingredient, prepared by a conventional method for preparing a wettable powder, an emulsifiable concentrate containing pethoxamid as the active ingredient (tradename: Successor 600, manufactured by Stähler Suisse SA) or an emulsifiable concentrate containing dimethenamid-P as the active ingredient (tradename: Fieldstar P emulsifiable concentrate, manufactured by BASF) were diluted with water (in an amount corresponding to 200 liter per hectare) containing 0.5 vol % of an agricultural spreader (tradename: Destiny HC, manufactured by Winfield Solutions, LLC.) and sprayed by a small spray gun (model: W-101-132G, manufactured by ANEST IWATA Corporation). Seeds of soybean (cultivar: Enrei, manufactured by Asahi Noen Seed Co., Ltd.) were sown in the pot after spraying and the soybean was cultivated. On the 97th day after the sowing, seeds were collected from the grown soybean, and their weight was measured to obtain the total weight.

[3] = system: soybean (cultivar: Enrei); experiment: (24) Plant growth promotion effect test (soybean), undesired plants not sown; settings: 48th day after the sowing, above-ground part
Text: Upland soil was put in a 1/500,000 hectare pot, and a water-based suspension containing tiafenacil as the active ingredient, prepared by a conventional method for preparing a water-based suspension, and an emulsifiable concentrate containing S-metolachlor as the active ingredient (tradename: Dual Gold, manufactured by Syngenta), a wettable powder containing metribuzin as the active ingredient (tradename: SENCOR wettable powder, manufactured by Bayer Crop Science), water dispersible granules containing pyroxasulfone as the active ingredient (tradename: Sakura, manufactured by Bayer Crop Science), a wettable powder containing tri-allate as the active ingredient, prepared by a conventional method for preparing a wettable powder, an emulsifiable concentrate containing pethoxamid as the active ingredient (tradename: Successor 600, manufactured by Stähler Suisse SA) or an emulsifiable concentrate containing dimethenamid-P as the active ingredient (tradename: Fieldstar P emulsifiable concentrate, manufactured by BASF) were diluted with water (in an amount corresponding to 200 liter per hectare) containing 0.5 vol % of an agricultural spreader (tradename: Destiny HC, manufactured by Winfield Solutions, LLC.) and sprayed by a small spray gun (model: W-101-132G, manufactured by ANEST IWATA Corporation). Seeds of soybean (cultivar: Enrei, manufactured by Asahi Noen Seed Co., Ltd.) were sown in the pot after spraying. On the 48th day after the sowing, the above-ground part of the soybean was reaped, and its weight was measured to obtain the total weight.

[4] = system: forage corn (cultivar: SNOW DENT OTOHA); experiment: (19) Plant growth promotion effect test (corn), Italian ryegrass sown; settings: 21st day after the sowing, above-ground part
Text: Upland soil was put in a 1/1,000,000 hectare pot, and seeds of Italian ryegrass (Lolium multiflorum) were sown. When the Italian ryegrass reached 3.2 to 3.7 leaf stage, a water-based suspension containing tiafenacil as the active ingredient, prepared by a conventional method for preparing a water-based suspension, and a wettable powder containing tri-allate as the active ingredient, prepared by a conventional method for preparing a wettable powder or an emulsifiable concentrate containing pethoxamid as the active ingredient (tradename: Successor 600, manufactured by Stähler Suisse SA) were diluted with water (in an amount corresponding to 200 liter per hectare) containing 0.5 vol % of an agricultural spreader (tradename: Destiny HC, manufactured by Winfield Solutions, LLC.) and sprayed by a small spray gun (model: W-101-132G, manufactured by ANEST IWATA Corporation). Seeds of forage corn (cultivar: SNOW DENT OTOHA, manufactured by SNOW BRAND SEED Co., Ltd.) were sown in the pot after spraying. On the 21st day after the sowing, the above-ground part of the forage corn was reaped, and its weight was measured to obtain the raw weight.

COC(=O)CCNC(=O)C(C)Sc1cc(-n2c(=O)cc(C(F)(F)F)n(C)c2=O)c(F)cc1Cl (stereo not drawn) [tiafenacil]
Growth inhibition rate (%) Measured value ([1]; Dose 12.5 g/ha): 38%
Total weight (g) of soybean seeds ([2]; Dose 12.5 g/ha): 14.3 g
Raw weight (g) of soybean ([3]; Dose 3 g/ha): 28.3 g
Raw weight (g) of forage corn ([4]; Dose 6.25 g/ha): 3.9 g

COC[C@H](C)N(C(=O)CCl)c1c(C)csc1C [dimethenamid-P]
Total weight (g) of soybean seeds ([2]; Dose 750 g/ha): 14.1 g
Raw weight (g) of soybean ([3]; Dose 150 g/ha): 28.9 g

CSc1nnc(C(C)(C)C)c(=O)n1N [metribuzin]
inhibition at 18.75 g/ha ([1]; Lolium multiflorum, Dose 18.75 g/ha, read-out: Growth inhibition rate (%) Measured value): 7%
Total weight (g) of soybean seeds ([2]; Dose 18.75 g/ha): 14.2 g
Raw weight (g) of soybean ([3]; Dose 150 g/ha): 16.1 g

CC(C)N(C(=O)SCC(Cl)=C(Cl)Cl)C(C)C [tri-allate]
Total weight (g) of soybean seeds ([2]; Dose 625 g/ha): 17.0 g
Raw weight (g) of soybean ([3]; Dose 200 g/ha): 18.2 g
Raw weight (g) of forage corn ([4]; Dose 75 g/ha): 2.6 g
Raw weight (g) of forage corn ([4]; Dose 625 g/ha): 2.2 g
Raw weight (g) of forage corn ([4]; Dose 1250 g/ha): 2.5 g

Cn1nc(C(F)(F)F)c(CS(=O)(=O)C2=NOC(C)(C)C2)c1OC(F)F [pyroxasulfone]
Total weight (g) of soybean seeds ([2]; Dose 125 g/ha): 15.6 g
Raw weight (g) of soybean ([3]; Dose 37.5 g/ha): 30.0 g

CCOCCN(C(=O)CCl)C(=C(C)C)c1ccccc1 [pethoxamid]
Total weight (g) of soybean seeds ([2]; Dose 750 g/ha): 11.0 g
Raw weight (g) of soybean ([3]; Dose 200 g/ha): 26.7 g
Raw weight (g) of forage corn ([4]; Dose 93.8 g/ha): 3.4 g
Raw weight (g) of forage corn ([4]; Dose 375 g/ha): 2.2 g
Raw weight (g) of forage corn ([4]; Dose 750 g/ha): 3.6 g

CCc1cccc(C)c1N(C(=O)CCl)[C@@H](C)COC [S-metolachlor]
Growth inhibition rate (%) Measured value ([1]; Dose 750 g/ha): 3%
Total weight (g) of soybean seeds ([2]; Dose 750 g/ha): 12.7 g
Raw weight (g) of soybean ([3]; Dose 75 g/ha): 27.1 g
